Laboratory results as given in patent US11919856B2, “Compounds” (UCL BUSINESS LTD, priority 2018, dated 2024).

Columns and labels:
Z α1-antitrypsin [1] = molecular target: T1, Z α1-antitrypsin (Homo sapiens, UniProt P01009, E366K/V237A); test: Circulating monomeric Z α1-antitrypsin in plasma of Z α1-antitrypsin transgenic mice; assay type: in vivo; parameters: a random insertion of the human Z α1-antitrypsin gene; from tissue; host or cells: liver and plasma of Z α1-antitrypsin transgenic mice (human Z transgene)
T1 sequence (P01009 25-418 V237A/E366K): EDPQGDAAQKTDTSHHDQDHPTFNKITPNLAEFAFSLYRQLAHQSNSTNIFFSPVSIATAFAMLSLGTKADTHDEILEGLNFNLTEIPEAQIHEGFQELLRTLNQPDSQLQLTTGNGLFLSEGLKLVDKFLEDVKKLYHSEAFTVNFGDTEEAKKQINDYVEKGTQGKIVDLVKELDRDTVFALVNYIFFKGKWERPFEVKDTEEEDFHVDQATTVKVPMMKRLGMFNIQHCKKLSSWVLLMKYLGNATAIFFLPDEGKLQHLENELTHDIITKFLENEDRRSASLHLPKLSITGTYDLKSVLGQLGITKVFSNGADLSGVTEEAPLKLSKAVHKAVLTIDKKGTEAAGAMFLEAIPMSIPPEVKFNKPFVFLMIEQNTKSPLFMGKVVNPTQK
Experimental: In order to investigate the therapeutic potential of Compound 1 in Z α1-antitrypsin deficiency, the compound was tested in a transgenic mouse model engineered with a random insertion of the human Z α1-antitrypsin gene (Teckman et al. Am J Physiol Gastrointest Liver Physiol. 2004; 286:G851-G62). To determine a suitable dose regimen for Compound 1 in these studies the total and unbound exposure in transgenic mice was estimated in an in silico model.
(§1) To explore the PK-PD relationship of Compound 1, Z α1-antitrypsin transgenic animals were dosed with 100, 30 or 10 mg/kg Compound 1 three times a day and on day 6 blood and liver were harvested at 3 hr (˜Cmax) and 8 hr (Cmin) after the dose for the measurement of total and free drug in both tissues. Blood was also harvested for the measurement of monomeric Z α1-antitrypsin in plasma. Total concentrations of Compound 1 were determined by specific LC-MS/MS assay and the free unbound drug in both tissues was determined using equilibrium dialysis and used to derive unbound concentrations.
Recent work has shown that a significant fraction of the total Z α1-antitrypsin in the circulation is in the polymeric conformation (Tan et al. Eur Respir J. 2014; 43(5):1501-4). […] Monomeric Z α1-antitrypsin was measured in plasma samples following 6 days of dosing and levels were normalised to each animals' pre-dose control levels to account for the natural variation of Z α1-antitrypsin between animals. […]
Since Compound 1 blocks polymer formation in cells the effect of dosing Compound 1 on liver polymer levels was explored. […] On days 15 and 21 of dosing, changes of monomeric Z α1-antitrypsin plasma samples were determined as above, and increases of 7- to 8-fold over the pre-dosing baseline levels were observed, similar to the effect in animals dosed for 3 or 6 days, consistent with sustained target engagement through the dosing period. […] There was no difference observed in total liver polymer load via manual or quantitative scoring.

α1-antitrypsin = test: Thermal shift assay (SYPRO Orange); assay type: biochemical; conditions: 50 µM Compound 1, SYPRO Orange, versus absence
Experimental: The native state stability of serpins on addition of compounds was investigated by thermal denaturation in the presence of a 5× concentration of SYPRO Orange dye solution (Life Technologies). A final protein concentration of 0.1 mg/ml and 50 uM compound suspended in PBS was used (Nettleship et al. Methods Mol Biol. 2008; 426:299-318). The samples were heated from 25° C.-95° C. at a rate of 1° C./min in three separate experiments on an Eppendorph Mastercycler Realplex4 quantitative real-time PCR instrument, and the fluorescence in the 605±15 nm bin recorded. The midpoint of denaturation (Tm) is the temperature at which the first derivative of fluorescence intensity against temperature reaches a maximum.
Polymerisation of α1-antitrypsin occurs from a transient intermediate state known as M*, that is readily populated by the Z variant. One of the hallmarks of M* is its recognition by environment-sensitive fluorescent reporter dyes. Thermal shift assays that make use of the dye SYPRO Orange report the stability of the protein native state against heat-induced unfolding. […] Native state stability can also be probed by equilibrium unfolding using chemical denaturants, where a peak in bis-ANS fluorescence corresponds with a maximally populated unfolding intermediate.

Z α1-antitrypsin [2] = molecular target: T1, Z α1-antitrypsin; test: Rapid refolding (non-denaturing PAGE); assay type: biochemical; conditions: snap dilution refolding
Experimental: Refolding of α1-antitrypsin in vitro is not fully reversible, due to loss of material from amorphous aggregation, polymerisation and misfolding. These contributions cannot be readily deconvoluted by bulk spectroscopic methods and therefore refolding was evaluated by non-denaturing PAGE. M and Z α1-antitrypsin at 9.6 mg/ml were denatured in 6 M urea and 15 mM sodium phosphate pH 8.0 for 4 hours at room temperature, and 1.25 μl was snap refolded into 250 μl PBS containing 0-50 μM Compound 1 and a normalised concentration of 5% v/v DMSO. After incubation for 1 hour at room temperature samples were analysed by Coomassie-stained 3-12% w/v acrylamide Bis-Tris Native PAGE gel (Life Technologies).
Mutations that interfere with the opening of […] or that perturb its interaction with the N-terminal portion of the reactive centre loop alter the ability of serpins to inhibit target proteases. The stoichiometry of inhibition (SI) was determined for M and Z α1-antitrypsin in discontinuous experiments against a model target protease, chymotrypsin. The pre-incubation of both variants with Compound 1 led to a >98% loss of protease inhibitory activity. […]

[3] = Total and free drug in blood and liver of Z α1-antitrypsin transgenic mice; assay type: in vivo, mouse; conditions: for systemic free drug levels relative to in vitro secretion potency: duration of the dosing period
Experimental: as §1

Z α1-antitrypsin [4] = molecular target: T1, Z α1-antitrypsin; test: Stoichiometry of inhibition against chymotrypsin, Z α1-antitrypsin; assay type: biochemical; conditions: Z α1-antitrypsin pre-incubated with compound
Experimental: Mutations that interfere with the opening of […] or that perturb its interaction with the N-terminal portion of the reactive centre loop alter the ability of serpins to inhibit target proteases. The stoichiometry of inhibition (SI) was determined for M and Z α1-antitrypsin in discontinuous experiments against a model target protease, chymotrypsin. The pre-incubation of both variants with Compound 1 led to a >98% loss of protease inhibitory activity. […] To investigate whether this activity was consistent with action as a chemical chaperone, M and Z α1-antitrypsin were unfolded in vitro into 6 M guanidine hydrochloride, and rapidly refolded by snap dilution into denaturant-free buffer in the presence or absence of Compound 1.

CHO-TET-ON-Z-A1AT cells = test: Cell viability assay with ER stressor tunicamycin; assay type: cell-based; conditions: 10 μM, versus cells expressing wild-type M α1-antitrypsin
Experimental: To investigate the ability of Compound 1 to protect cells from sensitisation to a secondary toxin, Z α1-antitrypsin expression was induced in CHO-TET-ON-Z-A1AT cells in the presence or absence of 10 μM Compound 1 before exposure to varying concentrations of the ER stressor tunicamycin. In a cell viability assay, cells expressing wild-type M α1-antitrypsin were less sensitive to tunicamycin than cells expressing Z α1-antitrypsin.

SMILES: CCC[C@@H](NC(=O)c1cccc2c1CC(=O)N2)[C@@H](O)c1cccc(F)c1C [Compound 1, N-[(1S,2R)-1-(3-fluoro-2-methylphenyl)-1-hydroxypentan-2-yl]-2-oxo-2,3-dihydro-1H-indole-4-carboxamide]
- increase in circulating Z α1-antitrypsin (Z α1-antitrypsin [1]; 30 mg/kg and 10 mg/kg three times a day, 6 days): significant, dose-dependent increases
- increase of plasma concentrations of the serpin (Z α1-antitrypsin [1]; transgenic mouse model): up to 8 fold
- increase in circulating levels of Z α1-antitrypsin (Z α1-antitrypsin [1]; within 3 days of dosing, maintained throughout the experiment): 7 fold
- transition midpoint temperature (α1-antitrypsin): marked increase
- anodally-shifted migration (misfolded byproduct) of refolded Z variant (Z α1-antitrypsin [2]): corrected at stoichiometric concentrations and above
- systemic free drug levels relative to in vitro secretion potency ([3]; 10 mg/kg): EC10-EC20
- free drug levels in blood ([3]; 30 mg/kg and 10 mg/kg three times a day, large part of the dosing period): significantly below the cellular EC50 concentrations
- systemic free drug levels relative to in vitro secretion potency ([3]; 30 mg/kg): EC20-EC30
- concentration at 8 h ([3]; Z α1-antitrypsin transgenic, mouse, blood, oral, 100 mg/kg three times a day, day 6, majority of the dosing period, read-out: Cmin levels of the free drug concentration in blood): ≥ 300 nM
- free and total drug concentrations in the liver ([3]; transgenic mice, day 6): equivalent to those in blood
- loss of protease inhibitory activity (Z α1-antitrypsin [4]): > 98%
- sensitivity to tunicamycin in cell viability assay (CHO-TET-ON-Z-A1AT cells): restored sensitivity
